In patent US20100150863A1, “HYDROXY METHYL PHENYL PYRAZOLYL UREA COMPOUND USEFUL IN TREATMENT OF CANCER” (BAYER PHARMACEUTICALS CORPORATION, priority 2006, published 2010):
Values belong to the compound of their own block, whether it stands above or below them.

Legend:
[1] = test system: Imatinib-resistant Bcr-Abl mutations; conditions: cited from earlier work
Bcr-Abl kinase = conditions: greater potency than Imatinib; cited from earlier work
Bcr-Abl E255K mutant = conditions: cited from earlier work
[2] = biological target: T1, mutant Bcr-Abl-T315I kinase (Homo sapiens, UniProt P00519, T315I); test: Bcr-Abl mutant T315I biochemical assay
T1 construct: fused on or other part: P11274 (Breakpoint cluster region protein)
T1 sequence (P00519 242-493 T315I limits assumed): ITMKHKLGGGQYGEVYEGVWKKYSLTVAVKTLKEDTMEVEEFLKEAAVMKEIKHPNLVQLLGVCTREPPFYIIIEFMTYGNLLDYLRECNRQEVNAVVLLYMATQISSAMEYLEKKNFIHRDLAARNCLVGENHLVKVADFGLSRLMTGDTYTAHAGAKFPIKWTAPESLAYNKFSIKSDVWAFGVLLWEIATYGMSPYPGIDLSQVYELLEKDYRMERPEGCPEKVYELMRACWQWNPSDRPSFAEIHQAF
Protocol: (§1) Bcr-Abl-wt or mutant Bcr-Abl-T315I kinase (0.17 nM) was incubated with Myelin Basic Protein (MBP, 2 μM) in assay buffer consisting of 50 mM Tris pH 7.5, 10 mM MgCl2, 1 mM EGTA, 2 mM DTT, 50 μM ATP and 0.4 μCi of ^33P-ATP. Test compounds were added at varying concentrations (final DMSO conc=1%) prior to the addition of ATP. The reaction mixture was incubated for 1 hour at 32° C. The reaction was then stopped by addition of phosphoric acid (final conc=1%) and samples were transferred to filtermats and read in a betaplate reader. Inhibition of MBP phosphorylation by Bcr-Abl-wt or Bcr-Abl-T315I was analyzed by using a 4 parameter fit and in-house software.

BaF3-Abl(M351T) = test: Cell proliferation assay, BaF3-Abl(M351T); assay type: cell-based; conditions: Imatinib-resistant mutation
Excerpt: [Worded in the source for another cell line; this cell line is reported under the same test.] (§2) The adherent tumor cell proliferation assay used to test the compounds of the present invention involves a readout called Cell Titre-Glo developed by Promega (Cunningham, B A “A Growing Issue: Cell Proliferation Assays. Modern kits ease quantification of cell growth” The Scientist 2001, 15(13), 26; and Crouch, S P et al., “The use of ATP bioluminescence as a measure of cell proliferation and cytotoxicity” Journal of Immunological Methods 1993, 160, 81-88).
(§3) H460 cells (lung carcinoma, purchased from ATCC) were plated in 96-well plates at 3000 cells/well in complete media with 10% Fetal Calf Serum and incubated 24 hours at 37° C. Twenty-four hours after plating, test compounds were added over a final concentration range of 10 nM to 20 μM in serial dilutions at a final DMSO concentration of 0.2%. Cells were incubated for 72 hours at 37° C. in complete growth media after addition of the test compound. On day 4, using a Promega Cell Titer Glo Luminescent® assay kit, the cells were lysed and 100 microliters of substrate/buffer mixture was added to each well, mixed and incubated at room temperature for 8 minutes. The samples were read on a luminometer to measure the amount of ATP present in the cell lysates from each well, which corresponds to the number of viable cells in that well. Values read at 24-hour incubation were subtracted as Day 0. […]

BaF3-Abl(wt) = test: Cell proliferation assay, BaF3-Abl(wt); assay type: cell-based
Excerpt: [Worded in the source for another cell line; this cell line is reported under the same test.] as §2, §3

BaF3-Abl(T315I) = test: Cell proliferation assay, BaF3-Abl(T315I); assay type: cell-based; conditions: Imatinib-resistant mutation
Excerpt: [Worded in the source for another cell line; this cell line is reported under the same test.] as §2, §3

K562 = test: Cell proliferation assay, K562; assay type: cell-based; conditions: K562, human cell line expressing wild type Bcr-Abl; 72 hours, Cell Titer Glo
Excerpt: [Worded in the source for another cell line; this cell line is reported under the same test.] as §2, §3

BaF3-Abl(Y253F) = test: Cell proliferation assay, BaF3-Abl(Y253F); assay type: cell-based; conditions: Imatinib-resistant mutation
Excerpt: [Worded in the source for another cell line; this cell line is reported under the same test.] as §2, §3

[3] = test system: BaF3 parental cell line that does not express Bcr-Abl; test: Cell proliferation assay, BaF3 parental cell line; assay type: cell-based; conditions: Mus musculus
BaF3-Abl(E255K) = test: Cell proliferation assay, BaF3-Abl(E255K); assay type: cell-based; conditions: Imatinib-resistant mutation
Excerpt: [Worded in the source for another cell line; this cell line is reported under the same test.] as §2, §3

Bcr-Abl-wt kinase = biological target: T2, Bcr-Abl-wt kinase (Homo sapiens, UniProt P00519); test: Bcr-Abl wild type biochemical assay
T2 construct: fused on or other part: P11274 (Breakpoint cluster region protein)
T2 sequence (P00519 229-512 limits assumed): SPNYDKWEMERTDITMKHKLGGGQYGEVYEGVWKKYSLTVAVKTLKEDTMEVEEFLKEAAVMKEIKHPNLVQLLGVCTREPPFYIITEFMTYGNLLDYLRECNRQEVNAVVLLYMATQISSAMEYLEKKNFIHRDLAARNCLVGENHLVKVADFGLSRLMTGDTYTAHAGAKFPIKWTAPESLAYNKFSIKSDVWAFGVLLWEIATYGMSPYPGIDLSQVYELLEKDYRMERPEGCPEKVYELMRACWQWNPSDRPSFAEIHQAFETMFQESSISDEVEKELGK
Protocol: as §1

human recombinant c-Met = biological target: T3, human recombinant c-Met (Homo sapiens, UniProt P08581); test: c-Met biochemical assay (ELISA)
T3 construct: C-terminal HIS-tagged intracellular kinase domain (956 to 1390 amino acids) human recombinant c-Met; His (C)
T3 sequence (P08581 956-1390): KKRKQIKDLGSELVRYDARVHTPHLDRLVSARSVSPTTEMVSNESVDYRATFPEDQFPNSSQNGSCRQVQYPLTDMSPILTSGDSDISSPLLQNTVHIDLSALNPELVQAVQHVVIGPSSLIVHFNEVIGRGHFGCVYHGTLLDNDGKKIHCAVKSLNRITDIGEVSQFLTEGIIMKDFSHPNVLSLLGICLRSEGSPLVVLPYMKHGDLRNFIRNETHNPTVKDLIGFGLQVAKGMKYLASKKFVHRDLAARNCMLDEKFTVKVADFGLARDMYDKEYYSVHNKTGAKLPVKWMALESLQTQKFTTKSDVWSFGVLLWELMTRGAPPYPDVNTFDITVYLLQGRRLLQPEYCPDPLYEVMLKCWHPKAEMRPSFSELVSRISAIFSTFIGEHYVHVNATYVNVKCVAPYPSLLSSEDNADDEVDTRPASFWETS
Protocol: An ELISA format was used for the c-Met biochemical assay. This assay uses the C-terminal HIS-tagged intracellular kinase domain (956 to 1390 amino acids) human recombinant c-Met in 96-well plates. 96-Well plates (Costar #9018) coated with poly(GluTyr) (Sigma # P0275) were used in this assay. The poly(GluTyr) substrate coated on the plate was phosphorylated in a 100 μL reaction volume with 2 nM c-Met protein in an assay buffer (50 mM HEPES pH7.0, 5 mM MnCl2, 0.1% BSA, 0.5 mM sodium orthovanadate, 0.1% β-mercaptoethanol), with 0.2 μM ATP (Sigma #A7699). […] After 25 minutes of incubation, the assay reaction was stopped with 25 μL of 100 mM EDTA. The plates were then washed, and wells were treated with 100 μL of 80 ng/mL anti-4G10-HRP antibody (Upstate #16-105) for 1 h. Plates were washed one final time, and were developed with 100 μL 3,3′,5,5′-TMB (Sigma #T8665), and quenched with 100 μL 1M HCl. Plates were read on a Victor 2 plate reader (Perkin Elmer) and IC50 analysis and calculation were performed using in-house software.

early phase CML = conditions: patients with early phase CML; cited from earlier work

Structure (SMILES): Cc1cn(-c2cc(NC(=O)c3ccc(C)c(Nc4nccc(-c5cccnc5)n4)c3)cc(C(F)(F)F)c2)cn1 [AMN-107, nilotinib]
inhibition of Imatinib-resistant Bcr-Abl mutations [1]: inhibit most Imatinib-resistant Bcr-Abl mutations, except for T315I
potency of Bcr-Abl kinase inhibition relative to Imatinib (Bcr-Abl kinase): 20 fold
inhibition of E255K mutant in a biochemical assay (Bcr-Abl E255K mutant): somewhat weak inhibition

IC50 [2]: < 10000 nM
IC50 (BaF3-Abl(M351T)): 8.38 nM
IC50 (BaF3-Abl(wt)): 2.81 nM
IC50 (BaF3-Abl(T315I)): 71 nM
IC50 (K562): 0.448 nM
IC50 (BaF3-Abl(Y253F)): 4.96 nM
IC50 (BaF3-Abl(E255K)): 53.9 nM
IC50 (Bcr-Abl-wt kinase): < 10000 nM
IC50 (human recombinant c-Met): < 10000 nM
Structure (SMILES): CNC(=O)c1cc(Oc2ccc(NC(=O)Nc3cc(C(C)(C)C)nn3-c3cccc(CO)c3)c(Cl)c2)ccn1 [ANDREA-1, 4-{4-[({3-tert-Butyl-1-[3-(hydroxymethyl)phenyl]-1H-pyrazol-5-yl}carbamoyl)amino]-3-chlorophenoxy}-N-methylpyridine-2-carboxamide]
IC50 [3]: > 3000 nM

Structure (SMILES): Cc1ccc(NC(=O)c2ccc(CN3CCN(C)CC3)cc2)cc1Nc1nccc(-c2cccnc2)n1 [Imatinib]
degree of response at haematological and cytogenetic levels (early phase CML): greater than 90%
